Data as given in ChEMBL document CHEMBL5223136, “Covalent drugs targeting histidine - an unexploited opportunity?” (RSC Med Chem, 2022).

Assays:
[1] = Metabolic stability in human hepatocytes assessed as intrinsic clearance and measured upto 60 mins in presence of NADPH by LC-MS/MS analysis; format: ADME, cell-based, Hepatocyte; conditions: read-out: CLH
[2] = Microsomal stability in human liver microsomes assessed as intrinsic clearance and measured upto 60 mins in presence of NADPH by LC-MS/MS analysis; format: ADME, Microsome; conditions: read-out: CLH
[3] = Metabolic stability in human plasma assessed as half life and measured upto 240 mins by LC-MS/MS analysis; format: ADME, cell-free

half-life [3] [h] | SMILES | CLint scaled [1] [mL/min/kg] | CLint scaled [2] [mL/min/kg]
– | O=C1CCC(N2Cc3ccc(S(=O)(=O)F)cc3C2=O)C(=O)N1 (configuration not stated) | < 9.6 | 13.7
1.98 | O=C1CCC(N2Cc3ccccc3C2=O)C(=O)N1 (configuration not stated) | < 9.6 | < 6.1
– | O=C1CCC(N2Cc3ccc(OS(=O)(=O)F)cc3C2=O)C(=O)N1 (configuration not stated) | < 9.6 | < 6.1
